In ChEMBL document CHEMBL3044601, “Movento®, an innovative ambimobile insecticide for sucking insect pest control in agriculture: Biological profile and field performance” (Crop Prot, 2009):
Converted amounts (≈) assume the structure as drawn.

Experiments:
Bemisia tabaci [1] = assay: Resistance ratio, LC50 for second instar nymph of organophosphates, pyrethroids, buprofezin, pyriproxyfen and pymetrozin-resistant Bemisia tabaci BR-JM03 (sweet potato whitefly) to LC50 for second instar nymph of Bemisia tabaci SUD-S; type: functional
Myzus persicae [2] = assay: Resistance ratio, LC50 for third instar nymph of carbamates, pyrethroids-resistant Myzus persicae F04-01 (green peach aphid) to LC50 for third instar nymph of Myzus persicae NS; type: functional
Myzus persicae [3] = assay: Insecticidal activity against Myzus persicae (green peach aphid) infected first leaf of cabbage plant assessed as phloem-systemic efficacy at 0.16 ug/plant treated with 2 g/L rapeseed oil methylester measured after 7 days on 3rd leaf by phloem mobility bioassay; type: functional
Bemisia tabaci [4] = assay: Insecticidal activity against second instar nymph of organophosphates-resistant Bemisia tabaci CRE04-01 (sweet potato whitefly) in cotton plant leaf after 10 days by leaf-dip bioassay; type: functional; conditions: CRE04-01, 240 h
Bemisia tabaci [5] = assay: Insecticidal activity against second instar nymph of organophosphates, pyrethroids, buprofezin, pyriproxyfen and pymetrozin-resistant Bemisia tabaci BR-JM03 (sweet potato whitefly) in cotton plant leaf after 10 days by leaf-dip bioassay; type: functional; conditions: BR-JM03, 240 h
Myzus persicae [6] = assay: Insecticidal activity against first instar nymph of Myzus persicae (green peach aphid) in Brassica oleracea leaf disc treated with 1 g/L rapeseed oil methylester after 3 days by leaf-dip bioassay; type: functional
Bemisia tabaci [7] = assay: Resistance ratio, LC50 for second instar nymph of organophosphates-resistant Bemisia tabaci CRE04-01 (sweet potato whitefly) to LC50 for second instar nymph of Bemisia tabaci SUD-S; type: functional
Bemisia tabaci [8] = assay: Resistance ratio, LC50 for second instar nymph of organophosphates-resistant Bemisia tabaci MEX03-02 (sweet potato whitefly) to LC50 for second instar nymph of Bemisia tabaci SUD-S; type: functional
Myzus persicae [9] = assay: Insecticidal activity against Myzus persicae (green peach aphid) infected first leaf of cabbage plant assessed as phloem-systemic efficacy at 100 ug/plant treated with 2 g/L rapeseed oil methylester measured after 7 days on 3rd leaf by phloem mobility bioassay; type: functional
Myzus persicae [10] = assay: Insecticidal activity against Myzus persicae (green peach aphid) infected first leaf of cabbage plant assessed as phloem-systemic efficacy at 4 ug/plant treated with 2 g/L rapeseed oil methylester measured after 7 days on 3rd leaf by phloem mobility bioassay; type: functional
Bemisia tabaci [11] = assay: Resistance ratio, LC50 for second instar nymph of organophosphates-resistant Bemisia tabaci ISR-02 (sweet potato whitefly) to LC50 for second instar nymph of Bemisia tabaci SUD-S; type: functional
Myzus persicae [12] = assay: Insecticidal activity against Myzus persicae (green peach aphid) infected first leaf of cabbage plant assessed as phloem-systemic efficacy at 20 ug/plant treated with 2 g/L rapeseed oil methylester measured after 7 days on 3rd leaf by phloem mobility bioassay; type: functional
Myzus persicae [13] = assay: Insecticidal activity against third-instar nymph of Myzus persicae NS (green peach aphid) in Brassica oleracea leaf disc after 3 days by leaf-dip bioassay; type: functional; conditions: foliar, 72 h
Myzus persicae [14] = assay: Insecticidal activity against third-instar nymph of carbamates, pyrethroids-resistant Myzus persicae F04-01 (green peach aphid) in Brassica oleracea leaf disc after 3 days by leaf-dip bioassay; type: functional; conditions: F04-01, foliar, 72 h
Bemisia tabaci [15] = assay: Insecticidal activity against second instar nymph of Bemisia tabaci SUD-S (sweet potato whitefly) in cotton plant leaf after 10 days by leaf-dip bioassay; type: functional; conditions: 240 h
[16] = Dissociation constant, pKa of the compound; type: physicochemical
Myzus persicae [17] = assay: Insecticidal activity against third-instar nymph of carbamates, pyrethroids-resistant Myzus persicae JR (green peach aphid) in Brassica oleracea leaf disc after 3 days by leaf-dip bioassay; type: functional; conditions: foliar, 72 h
Bemisia tabaci [18] = assay: Insecticidal activity against second instar nymph of organophosphates-resistant Bemisia tabaci ISR-02 (sweet potato whitefly) in cotton plant leaf after 10 days by leaf-dip bioassay; type: functional; conditions: ISR-02, 240 h
Bemisia tabaci [19] = assay: Resistance ratio, LC50 for second instar nymph of organophosphates-resistant Bemisia tabaci ESP-00 (sweet potato whitefly) to LC50 for second instar nymph of Bemisia tabaci SUD-S; type: functional
Bemisia tabaci [20] = assay: Insecticidal activity against second instar nymph of organophosphates-resistant Bemisia tabaci MEX03-02 (sweet potato whitefly) in cotton plant leaf after 10 days by leaf-dip bioassay; type: functional; conditions: MEX03-02, 240 h
Bemisia tabaci [21] = assay: Insecticidal activity against second instar nymph of organophosphates-resistant Bemisia tabaci ESP-00 (sweet potato whitefly) in cotton plant leaf after 10 days by leaf-dip bioassay; type: functional; conditions: ESP-00, 240 h
Myzus persicae [22] = assay: Resistance ratio, LC50 for third instar nymph of carbamates, pyrethroids-resistant Myzus persicae JR (green peach aphid) to LC50 for third instar nymph of Myzus persicae NS; type: functional
[23] = Lipophilicity, log P of the compound; type: physicochemical; conditions: octanol/water
Myzus persicae [24] = assay: Insecticidal activity against Myzus persicae (green peach aphid) infected first leaf of cabbage plant assessed as phloem-systemic efficacy at 0.8 ug/plant treated with 2 g/L rapeseed oil methylester measured after 7 days on 3rd leaf by phloem mobility bioassay; type: functional
Myzus persicae [25] = assay: Insecticidal activity against Myzus persicae (green peach aphid) infected first leaf of cabbage plant assessed as phloem-systemic efficacy at 0.032 ug/plant treated with 2 g/L rapeseed oil methylester measured after 7 days on 3rd leaf by phloem mobility bioassay; type: functional
Myzus persicae [26] = assay: Insecticidal activity against adult Myzus persicae (green peach aphid) in Brassica oleracea leaf disc treated with 1 g/L rapeseed oil methylester after 3 days by leaf-dip bioassay; type: functional

## CCOC(=O)OC1=C(c2cc(C)ccc2C)C(=O)N[C@]12CC[C@@H](OC)CC2 [SPIROTETRAMAT]
Bemisia tabaci [1]
  RatioLC50: 2.5
Myzus persicae [2]
  RatioLC50: 0.4
Myzus persicae [3]
  Efficacy: 22.5%
Bemisia tabaci [4]
  LC50: 1 µg/mL (≈ 2.68 µM)
Bemisia tabaci [5]
  LC50: 0.64 µg/mL (≈ 1.71 µM)
Myzus persicae [6]
  LC95: 0.73 ppm
Bemisia tabaci [7]
  RatioLC50: 3.8
Bemisia tabaci [8]
  RatioLC50: 1.9
Myzus persicae [9]
  Efficacy: 100%
Myzus persicae [10]
  Efficacy: 85.6%
Bemisia tabaci [11]
  RatioLC50: 2.8
Myzus persicae [12]
  Efficacy: 100%
Myzus persicae [13]
  LC50: 0.69 µg/mL (≈ 1.85 µM)
Myzus persicae [14]
  LC50: 0.27 µg/mL (≈ 0.723 µM)
Bemisia tabaci [15]
  LC50: 0.26 µg/mL (≈ 0.696 µM)
[16]
  pKa: 5.2
Myzus persicae [17]
  LC50: 0.59 µg/mL (≈ 1.58 µM)
Bemisia tabaci [18]
  LC50: 0.72 µg/mL (≈ 1.93 µM)
Bemisia tabaci [19]
  RatioLC50: 2.8
Bemisia tabaci [20]
  LC50: 0.49 µg/mL (≈ 1.31 µM)
Bemisia tabaci [21]
  LC50: 0.74 µg/mL (≈ 1.98 µM)
Myzus persicae [22]
  RatioLC50: 0.9
[23]
  logP: 0.3
Myzus persicae [24]
  Efficacy: 56.7%
Myzus persicae [25]
  Efficacy: 8.8%
Myzus persicae [26]
  LC95: 22 ppm
